The text below walks through data of US20220409727A1, “Metal Complexes Bearing Bisstyryl-Bipyridine Ligand and Their Use as Photosensitizer Agent in One and Two-Photon Photodynamic Therapy” (Paris Sciences et Lettres, priority 2019, published 2022).

Usually IC50 stands for the midpoint of a concentration-inhibition curve.

The test system of data set [1] is HeLa MCTS. Kind of data set: 3D multicellular tumor spheroids (MCTS) growth inhibition assay. The settings on record: 20 μM, 1P (500 nm, 10 J/cm^2) or 2P (800 nm, 10 J/cm^2) irradiation on day 3. In kind it is cell-based, human. As to the method:
autoclave. The hot emulsion was transferred into wells (50 μL per well) of a 96 cell culture well plate. The plates were exposed for 3 h to UV irradiation to ensure the sterility and allow the agarose solution to cool down. After this time, the agarose was overlayed with a HeLa cell suspension at a density of 3000 cells per well in 150 μL of media. The MCTS were cultivated and maintained at 37° C. in a cell culture incubator at 37° C. with 5% CO2 atmosphere. The culture media was replaced every two days. Within two-three days MCTs were formed from the cell suspension. The formation as well as integrity, diameter and volume of the MCTs was monitored by an Axio Observer Z1 (Carl Zeiss) phase contrast microscope. The volume was calculated using the following formula: V=4/3πr^3. The luminescence images along the z-axis were captured by a one-(λex=458 nm, λem=600-750 nm) or two-photon (λex=800 nm, λem=600-750 nm) excitation in the z-stack mode with a an LSM 880 (Carl Zeiss) laser scanning confocal microscope equipped with Argon and a Coherent Chameleon 2-Photon laser and a GaAsP detector.
MCTS were treated with the corresponding compounds (20 μM 1-7, 20 μM tetraphenylporphyrin H2TPP, 10 μM cisplatin, 30 μM cisplatin, 2% DMSO, v %) by replacing 50% of the media with drug supplemented media in the dark for three days. After this time, the MCTS were exposed to a two-photon irradiation (800 nm, 10 J/cm^2) with a section interval of 5 μm using a LSM 880 (Carl Zeiss) laser scanning confocal microscope equipped with a Coherent Chameleon 2-Photon laser. The cell culture media was replaced every two days. The integrity and diameter of the MCTs was monitored with an Axio Observer Z1 (Carl Zeiss) phase contrast microscope every 24 h.

For data set [2], the system named is SW620/AD300 (doxorubicin-selected P-gp-overexpressing human colon cancer cell) tumour-bearing nude mice. Kind of data set: In vivo PDT in tumour-bearing nude mice. As to the method: 6 weeks age nu/nu female mice were purchased from Charles River. Compound 7 was dissolved into physiological saline at first. Tumor xenograft: 6×10^6 SW620/AD300 cells were subcutaneously (s.c.) injected in the nude mice, the cells were suspension in 150 μL Matrigel (Corning) and saline (1:1, v/v). After a week, the tumor volumes of the mice reached approximately 80 mm^3.
30 SW620/AD300 nude tumour-bearing nude mice were randomly separated into 6 groups and five mice for each group.
Group 1: injected 7 (2 mg/Kg 50 μL) intravenously and irradiate under 800 nm laser (50 mW, 1 kHz, pulse width 35 fs, 5 s/mm) 1 h after injection;
Group 2: injected 7 (2 mg/Kg 50 μL) intravenously and irradiate under 500 nm light (10 mW/cm^2, 60 min);
Group 3: injected by physiological saline (50 μL) and treated with 800 nm laser (50 mW, 1 kHz, pulse width 35 fs, 5 s/mm) 1 h after injection;
Group 4: injected by physiological saline (50 μL) and treated with 500 nm light (10 mW/cm^2, 60 min);
Group 5: intravenous injected 7 (2 mg/Kg 50 μL);
Group 6: injected 50 μL physiological saline.
The mice were anesthetized by the injection of 4% chloral hydrate aqueous solution (0.2 mL/20 g) before treatment. The tumour volume and body weight were measured and record for each two days. Tumor volume was calculated by the following formula
After the treatment, the mice were euthanized. The tumour was collected and fixated by 4% paraformaldehyde, and then obtained as paraffin-embedded samples and stained with hematoxylin and eosin (H&E). A Carl Zeiss Axio Imager Z2 microscope was used to observe the tissue structure and cell state of the sections.

The nature of data set [3]: Luminescence quantum yield measurements. In kind it is physicochemical. The arrangement: key: fraction, relative to [Ru(bipy)3]Cl2 reference in CH3CN (Φem=5.9%). As to conditions: CH3CN, room temperature, excitation at 355 nm. An outline of the steps:
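Samples in CH3CN at absorbance 0.1 at 355 nm, excited at 355 nm by an Nd-YAG-pumped OPO with emission collected at right angle onto a monochromator and CCD. Quantum yield calculated relative to [Ru(bipy)3]Cl2 in CH3CN (Φem=5.9%), correcting for absorbed light fraction, integrated emission and refractive index.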

A short description of data set [4]: Luminescence lifetime measurements. In kind it is physicochemical. The settings on record: degassed CH3CN, excitation at 355 nm. An outline of the steps:
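Lifetimes were measured in air-saturated and degassed CH3CN solutions (absorbance 0.2 at 355 nm), excited at 355 nm by a pulsed Nd-YAG-pumped OPO. Emission was collected at right angles through a monochromator onto a photomultiplier tube.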

Data set [5] deals with non-cancerous retinal pigment epithelium (RPE-1) cells. Kind of data set: (Photo-)cytotoxicity on 2D cell monolayers, resazurin assay, RPE-1.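 Note: cells exposed to compound 4 h, medium exchanged, then irradiated or kept dark, 44 h further growth, viability by resorufin fluorescence (ex 540 nm, em 590 nm).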 In general terms: Alamar Blue is a resazurin reagent that responds to reducing activity.
Description: (§1) The human glioblastoma astrocytoma (U373) cell line was cultured in MEM medium supplemented with 10% FBS, 1% NEAA (non-essential amino-acids) and 1% penicillin/streptomycin. […] The human retinal epithelial cells (RPE-1, non-cancerous cells immortalized with hTERT) were cultured in DMEM-F12 medium supplemented with 10% FBS and 1% penicillin/streptomycin. All cell lines were obtained from the American Type Culture Collection (ATCC) and cultured at 37° C. and 5% CO2. Before an experiment, the cells were passaged three times.
(§2) The cytotoxicity of the compounds was assessed by measuring cell viability using a fluorometric resazurin assay. The cultivated cells were seeded in triplicates in 96 well plates with a density of 4000 cells per well in 100 μL of media. After 24 h, the medium was removed and the cells were treated with increasing concentrations of the compound diluted in cell media achieving a total volume of 200 μL. The cells were incubated with the compound for 4 h. After this time, the media was removed and replaced with 200 μL of fresh medium. For the phototoxicity studies, the cells were exposed to light with an Atlas Photonics LUMOS BIO irradiator. Each well was constantly illuminated with either a 480 nm or 540 nm irradiation. During this time, the temperature was maintained constantly at 37° C. The cells were grown in the incubator for additional 44 h. For the determination of the dark cytotoxicity, the cells were not irradiated and after the medium exchange directly incubated for 44 h. After this time, the medium was replaced with fresh medium containing resazurin with a final concentration of 0.2 mg/mL. After 4 h incubation, the amount of the fluorescent product resorufin was determined upon excitation at 540 nm and measurement its emission at 590 nm using a SpectraMax M2 Microplate Reader (Molecular Devices).
(§3) The obtained data was analyzed with the GraphPad Prism software.
Data set [6] can be described thus: Emission measurement in CH3CN. The settings on record: room temperature, excitation at 355 nm. In kind it is physicochemical.
Data set [7] has as its system mouse colon carcinoma (CT-26) cells.
Description: as §1, §2, §3
Data set [8] deals with human glioblastoma astrocytoma (U373) cells.

As for “[Ru(bipy)2((E,E′)-4,4′-Bis[p-(N,N-methoxy)styryl]-2,2′-bipyridine)][PF6]2 [Compound 7]”, the “volume of the MCTS after light irradiation” value in data set [1] is on record as “strongest phototoxic effect”. Further, the “behaviour of treated animals” value in data set [2] (2 mg/Kg intravenously) is “behave normally, without signs of pain, stress or discomfort”. For the same substance, the “tumour volume, PDT treated” value in data set [2] (2 mg/Kg intravenously plus 2P irradiation at 800 nm or 1P irradiation at 500 nm, 15 days) is reported as “drastically shrank until they were nearly eradicated”. In addition, in data set [2] (2 mg/Kg intravenously, no irradiation), the “tumour volume, compound only” value is on record as “did not show any significant effect”. For the same substance, the “ϕem (Luminescence Quantum Yield)” value in data set [3] is listed as 0.028. Moreover, the “τ/ns degassed (Lifetime)” value in data set [4] was determined as 542 ns. For the same substance, the “PI (480 nm)” value in data set [5] (RPE-1, dark vs 480 nm (10 min, 3.1 J/cm^2)) is more than 32.3. The “PI (540 nm)” value in data set [5] (RPE-1, dark vs 540 nm (40 min, 9.5 J/cm^2)) is recorded as more than 11.9. Moreover, the “λem/nm (Emission maximum)” value in data set [6] was 664 nm. For the same substance, the IC50 amounted to 0.7 ± 0.4 µM in data set [7] and 13.5 ± 1.6 µM in data set [8].
